The test system of the assay is MYOD1. Kind of assay: MYOD1 mRNA activation in HEK293T (dCas9, MS2-FKBP*x2), qRT-PCR. To be noted: FIG. 7E; for fold change, MYOD1 mRNA (MYOD1 gRNA vs NT gRNA): 24 hrs. It counts as cell-based, human. On the procedure: HCT116 cells were stably infected with dCas9 and MS2-FKBP*x2 via lentivirus. NT gRNA was transfected and the change of CXCR4 mRNA expression were quantified with RNA extraction and qRT-PCR, normalized to GAPDH. After 24 hrs of SLF*-CEMa exposure, the cells were separated into three groups: 1) continuous SLF*-CEMa treatment; 2) washout with media; and 3) washout with 20 μM AP1867 added. RNA extraction was performed at 12, 24, 48, and 72 hrs time points. […] HCT116 cells were stably expressing dCas9 and MS2-FKBP*x2 constructs and transfected with CXCR4 gRNA or NT gRNA. APC CXCR4 antibody was used in flow cytometry at referred time points. […] HEK293T cells were lentivirally infected with dCas9 and MS2-FKBP*x2 constructs and transfected with MYOD1 gRNA or NT gRNA. RNA extraction and qRT-PCR were performed after 24 hrs of CEM207 treatment in 5 nM, 25 nM, and 50 nM concentrations along with no chemical treatment as the control group. MYOD1 mRNA expression level was normalized to GAPDH. […] Stable dCas9 and MS2-FKBP*x2 expressing HEK293T cells were transfected with CXCR4 gRNA and NT gRNA. RNA extraction and qRT-PCR were performed after 24 hrs of 25 nM CEM207 or no chemical treatment. CXCR4 mRNA expression level was normalized to GAPDH. […] Stable dCas9 and MS2-FKBP*x2 expressing HEK293T cells were transfected with IL1RN gRNA and NT gRNA. RNA extraction and qRT-PCR were performed after 24 hrs of 25 nM CEM207 treatment. IL1RN mRNA expression level was normalized to GAPDH. […] Stable dCas9 and MS2-FKBP*x2 expressing HEK293T cells were transfected with ASLC1 gRNA and NT gRNA. RNA extraction and qRT-PCR were performed after 24 hrs of 25 nM CEM207 treatment. IL1RN mRNA expression level was normalized to GAPDH. […] Error bars represent the standard deviation.
As a gene-specific activation technology, it is important to investigate the universal applicability of SLF*-CEMa and evaluate their ability to activate variable genes in different tissue cells. To do so, HEK293T cells stably expressing dCas9 and MS2-FKBP*x2 constructs via lentiviral infection were established and benchmarked for the gene activation level of MYOD1, CXCR4, and IL1RN after CEM207 treatment for 24 hours. HEK293T cells transfected with MYOD1 gRNA were treated with 5 nM, 25 nM, or 50 nM of CEM207. RNA extraction and qRT-PCR were preformed after 24 hours. […] As a result, another gene was tested in the […] cell line. Stably infected cells were transfected with ASCL1 gRNA and mRNA expression was measured by qRT-PCR.
RNA extraction and qRT-PCR. All RNA extraction experiments were conducted in 12-well plate format. Culturing medium was removed, and cells were washed with 1×PBS, following with 0.05% trypsin to disassociate. […] The primer sets used in quantifying each gene can be found in Table 4.
Background: Quantitative PCR measures a nucleic acid by following its amplification.

`CC[C@H](C(=O)N1CCCC[C@H]1C(=O)O[C@H](CCc1ccc(OC)c(OC)c1)c1cccc(OCC(=O)NCCOCCOCCNC(=O)C[C@@H]2N=C(c3ccc(Cl)cc3)c3c(sc(C)c3C)-n3c(C)nnc32)c1)c1cc(OC)c(OC)c(OC)c1` [CEM207, (R)-1-(3-((14-((S)-4-(4-Chlorophenyl)-2,3,9-trimethyl-6H-thieno[3,2-f][1,2,4]triazolo[4,3-a][1,4]diazepin-6-yl)-2,13-dioxo-6,9-dioxa-3,12-diazatetradecyl)oxy)phenyl)-3-(3,4-dimethoxyphenyl) propyl(S)-1-((S)-2-(3,4,5-trimethoxyphenyl)butanoyl) piperidine-2-carboxylate]: for the setting “5 nM, 25 nM, or 50 nM, 24 hours”, the “MYOD1 mRNA expression” value is “dose-dependent increase”. The “fold change, MYOD1 mRNA (MYOD1 gRNA vs NT gRNA)” value runs as follows: (5 nM) 5.4 fold; (25 nM) 10.8 fold; (50 nM) 10.9 fold.

For the origin of these results see patent US20250177566A1, “USE OF CHEMICAL EPIGENETIC MODIFIERS TO MODULATE GENE EXPRESSION” (The University of North Carolina at Chapel Hill, priority 2022, published 2025).
